{"source": "ChEMBL document CHEMBL3853283", "about": "“Nitric Oxide Inhibitory Meroterpenoids from the Fungus Penicillium purpurogenum MHZ 111” (J Nat Prod, 2016)", "key": {"[1]": {"test_system": "BV-2 microglial cells (Mus musculus)", "experiment": "Antineuroinflammatory activity in mouse BV2 cells assessed as inhibition of LPS-induced nitric oxide production at 50 uM preincubated for 10 mins followed by LPS stimulation for 24 hrs by Griess assay"}, "[2]": {"experiment": "Antineuroinflammatory activity in […] of LPS-induced nitric oxide production preincubated for 10 mins followed by LPS stimulation for 24 hrs by Griess assay", "assay_type": "functional, cell-based", "conditions": "BV-2"}, "[3]": {"experiment": "Cytotoxicity against […] cells assessed as decrease in cell viability up to 100 uM preincubated for 10 mins followed by LPS stimulation for 24 hrs by MTT assay", "assay_type": "toxicity, cell-based", "conditions": "bv-2, 24 h"}}}
{"compound": "COC(=O)[C@]12C(=O)[C@@](C)(O)C(=O)[C@](C)(C[C@H]3C(C)=C4CC(=O)OC(C)(C)C4=CC[C@@]31C)[C@]21CO1", "values": [{"measurement": "inhibition at 50 µM", "setting": "[1]", "value": "< 50", "unit": "%"}]}
{"compound": "CC(=O)O[C@@H]1c2c3c(cc(O)c2C(=O)OC1C)O[C@@]1(C)[C@@H](O)C[C@H]2C(C)(C)C(=O)C=C[C@]2(C)[C@@H]1C3", "note": "(stereo partly drawn)", "values": [{"measurement": "inhibition at 50 µM", "setting": "[1]", "value": "< 50", "unit": "%"}]}
{"compound": "CC1Cc2c3c(cc(O)c2C(=O)O1)O[C@@]1(C)[C@@H](O)C[C@H]2C(C)(C)C(=O)C=C[C@]2(C)[C@@H]1C3", "note": "(stereo partly drawn)", "values": [{"measurement": "inhibition at 50 µM", "setting": "[1]", "value": "< 50", "unit": "%"}]}
{"compound": "COc1ccc2c(c1)c(CC(=O)O)c(C)n2C(=O)c1ccc(Cl)cc1", "note": "[INDOMETHACIN]", "values": [{"measurement": "IC50", "setting": "[2]", "value": 34.5, "unit": "µM"}]}
{"compound": "CC1=C2CC(=O)OC(C)(C)C2=CC[C@@]2(C)[C@H]1C[C@@]1(C)C(=O)[C@@]3(C)O[C@]14COC(=O)[C@@]42C3=O", "values": [{"measurement": "inhibition at 50 µM", "setting": "[1]", "value": "< 50", "unit": "%"}]}
{"compound": "C[C@H]1O[C@@H]2OC(=O)[C@]3(C)CC4=C(CO)C5=C(CC(=O)[C@]4(C)[C@H](C1=O)[C@H]23)C(C)(C)OC(=O)C5", "values": [{"measurement": "inhibition at 50 µM", "setting": "[1]", "value": "< 50", "unit": "%"}]}
{"compound": "C[C@@H]1O[C@@H]2OC(=O)[C@]3(C)C[C@@H]4[C@](C)(C(=O)C=C5C(=CC(=O)OC5(C)C)[C@@]45CO5)[C@H](C1=O)[C@H]23", "note": "[BERKELEYACETAL C]", "values": [{"measurement": "IC50", "setting": "[2]", "value": 0.8, "unit": "µM"}, {"measurement": "Activity", "setting": "[3]", "value": "Non-Toxic"}]}
